Patent publication US20230097866A1, “BACTERIAL TOPOISOMERASE INHIBITORS DERIVED FROM ISOMANNIDE” (Ohio State Innovation Foundation, priority 2020, published 2023)
≈ marks a conversion by molar mass, not a printed value. Where two headings read alike, the source gives them in different places.

Tests used:
[1] = system: S. aureus ATCC 29213; assay: MIC panel (Laboratory Specialists, Inc.), S. aureus ATCC 29213; type: cell-based; conditions: Staphylococcus aureus, ATCC29213, read-out: MIC S. aureus ATCC 29213 (n = 3); Cmpd. 6; CLSI broth microdilution; very small pinpoint growth up to 4 μg/mL
[2] = system: MRSADRL-3161; assay: MIC panel (Laboratory Specialists, Inc.), MRSA; type: cell-based; conditions: Staphylococcus aureus; Cmpd. 6; CLSI broth microdilution
[3] = system: Streptococcus pneumoniae LSI-4234; assay: MIC panel (Laboratory Specialists, Inc.), S. pneumoniae LSI-4234; type: cell-based; conditions: LSI4234, Cmpd. 6, penicillin-susceptible strain
[4] = target: S. aureus DNA gyrase (Staphylococcus aureus, UniProt P20831); assay: Inhibition of DNA gyrase, biochemical assay (Inspiralis); conditions: S. aureus DNA gyrase; Inspiralis, Ltd.; read-out: Gyrase IC50
[5] = target: T1, hKv4.3/KChIP2 (Homo sapiens, UniProt Q9UK17); assay: Kv4.3/KChIP2 QPatch CiPA assay; type: cell-based; conditions: mean, duplicate
T1 construct: expressed in transfected cells
T1 sequence (Q9UK17 1-655): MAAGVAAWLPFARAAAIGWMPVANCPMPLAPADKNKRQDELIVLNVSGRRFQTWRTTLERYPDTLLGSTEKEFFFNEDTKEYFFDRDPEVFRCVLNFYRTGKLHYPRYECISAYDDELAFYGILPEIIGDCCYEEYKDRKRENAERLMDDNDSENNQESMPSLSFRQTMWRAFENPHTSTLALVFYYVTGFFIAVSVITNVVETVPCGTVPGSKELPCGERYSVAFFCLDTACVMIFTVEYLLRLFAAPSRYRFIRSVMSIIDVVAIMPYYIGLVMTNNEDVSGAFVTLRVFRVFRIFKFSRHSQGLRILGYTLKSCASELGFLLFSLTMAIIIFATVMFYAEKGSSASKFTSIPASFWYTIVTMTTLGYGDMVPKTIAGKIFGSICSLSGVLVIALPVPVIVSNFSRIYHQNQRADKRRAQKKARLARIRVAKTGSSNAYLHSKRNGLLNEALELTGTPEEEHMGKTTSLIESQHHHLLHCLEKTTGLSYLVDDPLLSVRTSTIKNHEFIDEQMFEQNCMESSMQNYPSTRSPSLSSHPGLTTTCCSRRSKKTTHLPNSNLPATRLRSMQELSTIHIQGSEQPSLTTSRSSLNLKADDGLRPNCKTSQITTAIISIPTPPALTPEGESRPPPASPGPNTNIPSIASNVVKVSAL
T1 sequence (Q9NS61 1-270 partner): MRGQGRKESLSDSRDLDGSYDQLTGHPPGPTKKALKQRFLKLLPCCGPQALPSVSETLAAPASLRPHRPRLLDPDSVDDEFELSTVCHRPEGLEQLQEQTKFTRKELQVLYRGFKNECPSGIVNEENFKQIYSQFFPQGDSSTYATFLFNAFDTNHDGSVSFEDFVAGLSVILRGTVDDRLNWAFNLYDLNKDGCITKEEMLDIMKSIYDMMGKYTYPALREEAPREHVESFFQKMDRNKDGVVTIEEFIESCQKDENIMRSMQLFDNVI
From the text: Early drug discovery programs commonly assess hERG inhibition as the only indicator of potential cardiovascular safety concerns. Researchers have recently recommended a more rigorous evaluation of multiple cardiac ion channels to provide a more comprehensive cardiovascular risk assessment (Fermini, B., et al., A New Perspective in the Field of Cardiac Safety Testing through the Comprehensive In Vitro Proarrhythmia Assay Paradigm. J. Biomolec. Screening 2016, 21, 1-11). Given the promising initial results for 6, further evaluation was undertaken (in duplicate) in a Comprehensive in vitro Proarrhythmia Assay (CiPA) eight assay panel run on the QPatch HT (Sophion, Denmark) automated patch clamp system at three concentrations (3, 30, and 100 μM). All data were filtered for seal quality, seal drop, and current amplitude. A stock solution of the test compound at 30 mM concentration was prepared in DMSO.
The parameters measured were the maximum outward current evoked on stepping to 40 mV from the test pulse. The peak current amplitude was calculated before and after compound addition and the amount of block was assessed by dividing the Test compound current amplitude by the Control current amplitude. Control is the mean hKv4.3/KChIP2 current amplitude collected 15 seconds at the end of the control; Test Compound is the mean hKv4.3/KChIP2 current amplitude peak and end collected in the presence of test compound at each concentration. The positive control was flecainide.

[6] = 100 μM
Method: Potential off-target pharmacology for compound 6 was also evaluated by screening in duplicate against a panel (Bowes, J., et al., Reducing Safety-Related Drug Attrition: The Use of in vitro Pharmacological Profiling. Nat. Rev. Drug Disc. 2012, 11, 909-922) of 44 receptors, enzymes, etc. Of the 44 potential targets, only five were inhibited by >50% at a concentration of 100 μM (Table 7).

[7] = in vitro; type: in vitro ADME; conditions: pH 7.4, 1 μM, read-out: microsomal half-life
Method: The test compound at 1 μM was pre-incubated with pooled liver microsomes in phosphate buffer (pH 7.4) for 5 minutes in a 37° C. shaking water bath. The reaction was initiated by adding NADPH-generating mixture (NADP+, glucose-6-phospate, glucose-6-phosphate dehydrogenase) and incubated for 0, 15, 30, 45, and 60 minutes. The reaction was stopped by transferring aliquots of the incubation mixture to acetonitrile/methanol. Samples were centrifuged, and supernatants analyzed by LCMS. The half-life was calculated from the slope of the initial linear range of the logarithmic curve of compound remaining %) vs. time, assuming first order kinetics. In addition, the intrinsic clearance (Clint) was calculated from the half-life.

[8] = target: T2, CYP1A2 (Homo sapiens, UniProt P05177); type: in vitro ADME; conditions: 10 μM; human liver microsomes
T2 construct: incubated with human liver microsomes (mixed gender, pool of 50 donors, 0.1 mg/mL); from tissue; host or cells: human liver microsomes, pool of 50 donors
Method: CYP450 inhibition assays was conducted using individual enzyme substrates and inhibitors instead of a cocktail to avoid interferences. CYP450 isoforms tested included the following: CYP1A2, CYP2B6, CYP2C8, CYP2C9, CYP2C19, CYP2D6, and CYP3A4. Each test compound was screened at a final concentration of 10 μM. Each test compound was incubated with human liver microsomes (mixed gender, pool of 50 donors, 0.1 mg/mL), CYP450-selective probe substrates, and co-factors (NADPH, MgCl2) in phosphate buffer (pH 7.4) for 10-30 min in a 96-well plate at 37° C. The reactions were stopped by transferring the reaction mixture to acetonitrile/methanol. Samples were mixed and centrifuged, and the supernatants analyzed by LC-MS/MS to quantify percent inhibition relative to vehicle control.

[9] = read-out: % Inhibition Kv4.3 (end current)
[10] = read-out: % Inhibition Kv4.3 (peak current)

T2 sequence (P05177 whole entry): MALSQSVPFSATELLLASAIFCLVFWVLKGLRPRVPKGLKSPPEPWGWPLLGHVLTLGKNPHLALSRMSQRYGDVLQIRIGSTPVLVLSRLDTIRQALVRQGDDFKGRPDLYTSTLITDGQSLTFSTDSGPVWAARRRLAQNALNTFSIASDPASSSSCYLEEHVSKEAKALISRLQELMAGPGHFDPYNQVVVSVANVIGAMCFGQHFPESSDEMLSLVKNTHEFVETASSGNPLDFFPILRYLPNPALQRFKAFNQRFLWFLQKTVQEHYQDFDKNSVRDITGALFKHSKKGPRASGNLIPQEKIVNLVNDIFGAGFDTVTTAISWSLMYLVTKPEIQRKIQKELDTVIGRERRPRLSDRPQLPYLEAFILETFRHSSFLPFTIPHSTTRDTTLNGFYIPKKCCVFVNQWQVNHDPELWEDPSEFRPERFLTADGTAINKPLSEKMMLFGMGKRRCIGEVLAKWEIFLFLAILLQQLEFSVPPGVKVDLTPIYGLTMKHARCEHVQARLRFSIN
S. aureus DNA gyrase, sequence (P0A0K8 whole entry): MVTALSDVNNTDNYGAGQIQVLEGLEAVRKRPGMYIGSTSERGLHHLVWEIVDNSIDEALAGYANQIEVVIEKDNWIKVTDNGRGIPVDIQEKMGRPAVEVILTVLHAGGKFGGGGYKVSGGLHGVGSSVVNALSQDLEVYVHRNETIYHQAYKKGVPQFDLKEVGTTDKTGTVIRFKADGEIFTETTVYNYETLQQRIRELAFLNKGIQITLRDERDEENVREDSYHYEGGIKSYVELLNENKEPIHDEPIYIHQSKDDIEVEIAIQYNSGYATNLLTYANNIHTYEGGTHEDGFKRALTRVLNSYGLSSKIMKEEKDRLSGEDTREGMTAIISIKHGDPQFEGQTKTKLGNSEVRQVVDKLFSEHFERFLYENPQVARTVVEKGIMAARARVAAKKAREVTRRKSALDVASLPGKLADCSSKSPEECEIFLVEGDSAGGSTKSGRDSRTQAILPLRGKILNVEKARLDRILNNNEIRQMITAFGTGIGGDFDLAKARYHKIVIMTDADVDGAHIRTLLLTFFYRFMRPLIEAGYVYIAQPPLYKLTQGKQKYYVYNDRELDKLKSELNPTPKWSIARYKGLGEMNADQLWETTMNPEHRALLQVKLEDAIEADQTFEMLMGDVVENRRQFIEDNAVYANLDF
S. aureus DNA gyrase, sequence (P20831 whole entry): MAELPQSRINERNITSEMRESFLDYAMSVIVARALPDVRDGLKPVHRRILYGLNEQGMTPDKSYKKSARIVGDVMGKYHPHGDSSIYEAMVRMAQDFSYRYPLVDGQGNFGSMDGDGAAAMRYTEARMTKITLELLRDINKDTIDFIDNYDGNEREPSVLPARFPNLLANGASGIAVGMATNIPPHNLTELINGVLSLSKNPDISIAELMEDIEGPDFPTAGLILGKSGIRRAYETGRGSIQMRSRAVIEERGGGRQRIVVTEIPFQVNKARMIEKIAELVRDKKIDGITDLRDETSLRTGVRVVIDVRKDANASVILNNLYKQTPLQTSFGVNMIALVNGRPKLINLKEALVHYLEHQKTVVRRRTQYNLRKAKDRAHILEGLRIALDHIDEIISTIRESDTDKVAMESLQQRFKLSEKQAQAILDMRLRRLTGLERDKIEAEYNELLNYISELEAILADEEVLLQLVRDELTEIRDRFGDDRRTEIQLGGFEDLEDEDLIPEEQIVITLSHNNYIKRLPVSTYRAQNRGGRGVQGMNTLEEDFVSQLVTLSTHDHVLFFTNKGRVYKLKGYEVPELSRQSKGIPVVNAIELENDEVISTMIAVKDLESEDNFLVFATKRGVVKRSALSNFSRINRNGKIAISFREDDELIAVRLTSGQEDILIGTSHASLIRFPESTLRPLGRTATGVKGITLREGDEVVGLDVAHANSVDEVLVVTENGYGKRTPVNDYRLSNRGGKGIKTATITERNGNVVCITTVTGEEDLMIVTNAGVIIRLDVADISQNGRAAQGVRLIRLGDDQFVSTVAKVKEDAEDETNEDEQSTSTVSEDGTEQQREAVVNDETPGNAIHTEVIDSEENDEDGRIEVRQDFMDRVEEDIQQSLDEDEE

COc1ccc2ncc(F)c(CC[C@@]3(O)CO[C@@H]4[C@@H](NCc5cc6c(cn5)OCCO6)CO[C@@H]43)c2n1 [Compound 6, (3R, 3aS,6S,6aR)-6-(((2,3-dihydro-[1,4]dioxino[2,36-c]pyridin-7-yl)methyl)amnino)-3-(2-(3-fluoro-6-methoxy-1,5-naphthyridin-4-yl)ethyl)hexahydrofuro[3,2-b]furan-3-ol]
MIC [1]: 0.25 µg/mL (≈ 0.501 µM) | MIC [2]: 1 µg/mL (≈ 2.01 µM) | MIC [3]: ≤ 0.12 µg/mL | IC50 [4]: 530 nM | inhibition at 3 µM [5, 9]: -4.4% | inhibition at 3 µM [5, 10]: 11% | inhibition at 30 µM [5, 9]: -19.6% | inhibition at 30 µM [5, 10]: 25.1% | inhibition at 100 µM [5, 9]: 7.1% | inhibition at 100 µM [5, 10]: 43.6% | number of the 44 potential targets inhibited by >50% [6]: five | half-life ([7]; human microsomes): 6 min | half-life ([7]; mouse microsomes): 3 min | CYP1A2 inhibition [8]: Less than 50%
